Results as given in PMC9611471 (Pharmaceutics, 2022).

Assays:
SK1 [1] = biological target: T1, SK1 (Homo sapiens, UniProt Q9NYA1); set-up: purchased Thermo Fisher Scientific; method as in PMID 32526899; settings: read-out: SK1 inhibitory effect (IC50); cited from earlier work
SK1 [2] = biological target: T1, SK1; set-up: purchased Thermo Fisher Scientific; method as in PMID 32526899; settings: cited from earlier work
A549 cells [3] = assay: SK1 and SK2 protein (Western blotting) and mRNA (qRT-PCR) levels; type: cell-based, human; settings: 5 and 10 μM, 24 h
Protocol: (§1) Western blotting measured changes in apoptosis-related proteins (PARP, BAX, BCL-2, Caspase-3). A549 cells (1 × 10^6 cells per well in 6-well plates) were incubated for 24 h. Cells were treated with concentrations of the compounds and incubated for 24 h. Then, cells were dissolved on ice for two hours with a lysis buffer containing a mixture of protease and phosphatase inhibitors. The lysate was centrifuged at 12,000× g for 15 min at 4 °C, and the supernatant was collected. Protein concentrations were measured using a bicinchoninic acid protein assay kit. Total protein was separated by 8–10% sodium dodecyl sulfate–polyacrylamide gel electrophoresis (SDS-PAGE) and transferred onto polyvinylidene fluoride (PVDF) membranes. After being blocked with 5% skim milk, membranes were probed overnight at 4 °C with primary antibodies against SK1, SK2, PARP, BAX, Bcl-2, Caspase-3, and β-actin. Then, the membranes were incubated with subsequent secondary antibodies at room temperature. Then, the protein expressions were measured by Amersham Imager 680 (GE Healthcare, Leiden, WZ, The Netherlands).
RNAs were isolated using the Trizol/chloroform reagent (Invitrogen, Waltham, MA, USA). […] For quantitative analysis of various genes, qRT-PCR was performed using the Bio-Rad CFX384 Touch Real-time PCR detection system (Bio-Rad, Hercules, CA, USA) with SYBR Premix Ex Taq (Takara Bio, Shiga, Japan) for 40 cycles.

[4] = In vitro metabolic stability, rat liver microsomes; type: in vitro ADME; settings: pooled liver microsomes, NADPH, 37 °C, 0 and 30 min
SK1 [5] = biological target: T1, SK1; assay: SK1 activity assay (Adapta screening system)
[6] = In vitro metabolic stability, dog liver microsomes; type: in vitro ADME; settings: pooled liver microsomes, NADPH, 37 °C, 0 and 30 min
[7] = In vitro metabolic stability, human liver microsomes; settings: pooled liver microsomes 0.5 mg/mL, NADPH, 37 °C, 0 and 30 min
SK2 = biological target: T2, SK2 (Homo sapiens, UniProt Q9NRA0); assay: SK2 activity assay (Adapta screening system); settings: read-out: SK2 inhibitory efficacy
T2 sequence (Q9NRA0 1-654): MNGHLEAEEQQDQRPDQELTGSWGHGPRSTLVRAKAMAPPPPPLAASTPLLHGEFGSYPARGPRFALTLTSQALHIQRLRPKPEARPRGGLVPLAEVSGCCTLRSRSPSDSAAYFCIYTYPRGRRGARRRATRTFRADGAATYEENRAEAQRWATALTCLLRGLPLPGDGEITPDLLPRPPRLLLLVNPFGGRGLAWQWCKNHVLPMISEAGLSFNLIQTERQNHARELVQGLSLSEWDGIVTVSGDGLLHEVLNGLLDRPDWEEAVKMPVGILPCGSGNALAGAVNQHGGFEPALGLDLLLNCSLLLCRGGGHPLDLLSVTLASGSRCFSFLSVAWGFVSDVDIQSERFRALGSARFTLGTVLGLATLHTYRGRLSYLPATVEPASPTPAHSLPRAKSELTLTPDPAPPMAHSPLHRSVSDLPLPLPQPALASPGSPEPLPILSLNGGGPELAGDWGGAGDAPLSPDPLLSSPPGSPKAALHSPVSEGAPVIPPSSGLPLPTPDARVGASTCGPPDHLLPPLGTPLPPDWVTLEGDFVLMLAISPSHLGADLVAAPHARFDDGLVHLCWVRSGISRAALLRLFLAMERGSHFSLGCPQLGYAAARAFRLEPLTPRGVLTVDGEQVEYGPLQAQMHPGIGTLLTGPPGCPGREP

A549 cells [8] = assay: Western blotting of apoptosis-related proteins; type: cell-based, human; settings: 5 and 10 μM, 24 h
Protocol: as §1

A549 cells [9] = assay: Colony formation assay; type: cell-based, human; settings: 5 and 10 μM
Protocol: A549 cells (1 × 10^3 cells/well) were seeded into six-well plates and then each compound was treated at 5 and 10 μM for 12 h. The medium was changed every two days, and the cells were cultured in a fresh medium for 10 days. The obtained colonies were fixed with 25% glutaraldehyde for 20 min and then stained with 0.1% crystal violet for 15 min.

A549 cells [10] = assay: Mitochondrial membrane potential measurement (JC-10); type: cell-based, human; settings: 10 μM, 24 h
Protocol: To access the mechanism of cell death, Mitochondrial Membrane Potential (MMP) was performed using JC-10 cationic dye. […] Cells were collected, and 20 μM JC-10 dye prepared in HBSS solution (0.14 M NaCl, 0.005 M KCl, 0.001 M CaCl2, 0.005 M MgSO4-7H2O, 0.0004 M MgSO4-6H2O, 0.0003 M Na2HPO4-2H2O, 0.0004 M KH2PO4, 0.006 M D-glucose, 0.004 M NaHCO3, 0.002 M HEPES, and 0.02% Pluronic® F-127) was added to the cell for 30 min and mixed. The samples were protected from light and measured by using the MACS Quant Analyzer 10 Flow cytometer.

[11] = In vitro metabolic stability, mouse liver microsomes; type: in vitro ADME; settings: pooled liver microsomes, NADPH, 37 °C, 0 and 30 min
A549 and H1299 cells = assay: Cell proliferation / viability assay (EZ-CYTOX)
A549 cells [12] = assay: Annexin V-FITC apoptosis analysis; type: cell-based, human; settings: 24 h
Protocol: A549 cells (1 × 10^5 cells) were seeded in into a 12-well plate. […] After harvesting the cells, the binding buffer was added and then incubated with annexin-V-FITC and PI at room temperature for 15 min. The stained cells were analyzed with MACS Quant Analyzer 10 Flow Cytometer (Miltenyi Biotec, Bergisch Gladbach, Germany) within 1 h.

A549 cells [13] = assay: Cytotoxicity after SK1/SK2 siRNA transfection; type: cell-based, human; settings: A549 cells transfected with siSK1, siSK2; 24 h
Protocol: Control small interfering RNA (siControl) was obtained from Bioneer (Daejeon, Korea), while SK1 (sc-44114) and SK2 (sc-39225) siRNA (siSK1 and siSK2) were purchased from Santa Cruz Biotechnology (Dallas, TX, USA). Cells were transfected using Lipofectamine RNAiMAX Reagent (Invitrogen, Carlsbad, CA, USA) according to the manufacturer’s instructions. Transfection efficiency was monitored by Western blot. After 24 h of infection, cytotoxicity was measured using infected cells.

A549 cells [14] = assay: Levels of sphingosine, ceramide and S1P (ELISA); type: cell-based, human; settings: 5 and 10 μM
Protocol: After seeding 1 × 10^6 cells/well into a 6-well plate and incubating for 24 h, the synthetic compounds were treated by concentration. Then, cells were collected and freezing and thawing were repeated three to five times, and centrifuged supernatant was used for testing. The levels of sphingosine, ceramide, and S1P were measured according to the proposed manual using each ELISA kit (Mybiosource, Inc., San Diego, CA, USA).

[15] = previous studies; cited from earlier work

T1 sequence (Q9NYA1 whole entry): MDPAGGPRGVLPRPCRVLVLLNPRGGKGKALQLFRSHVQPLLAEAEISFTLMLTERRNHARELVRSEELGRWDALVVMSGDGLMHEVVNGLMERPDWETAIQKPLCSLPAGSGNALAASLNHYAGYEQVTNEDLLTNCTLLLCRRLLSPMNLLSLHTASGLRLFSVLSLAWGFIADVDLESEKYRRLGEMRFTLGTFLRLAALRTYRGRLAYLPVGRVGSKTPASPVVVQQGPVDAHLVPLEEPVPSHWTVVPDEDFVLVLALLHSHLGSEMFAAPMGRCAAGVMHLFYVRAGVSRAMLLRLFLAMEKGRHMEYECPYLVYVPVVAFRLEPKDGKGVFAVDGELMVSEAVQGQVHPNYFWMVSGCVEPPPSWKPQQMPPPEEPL

For Cc1cc(CN(Cc2cc(C)cc(CS(=O)(=O)c3ccccc3)c2)c2ccc(CCO)cc2)cc(CS(=O)(=O)c2ccccc2)c1 [Compound 7], the IC50 (SK1 [1]) is given as 0.14 µM and the “binding affinity for SK1 (Ka)” value (SK1 [2]) is given as 3.9e+07 M⁻¹.

For Cc1cc(CN(Cc2cc(C)cc(CS(=O)(=O)c3ccccc3)c2)c2ccc(CCN3CCC(O)CC3)cc2)cc(CS(=O)(=O)c2ccccc2)c1 [Compound 2, 1-(4-(Bis(3-methyl-5-((phenylsulfonyl)methyl)benzyl)amino)phenethyl)piperidin-4-ol], the “expression of proteins and mRNAs of SK1 and SK2” value (A549 cells [3]) was “did not affect”, the “MS RLM” value [4] was 29.1 and the “selectivity for SK1” value (SK1 [5]; SK1 vs SK2, compared to PF-543) was “lower selectivity for SK1 compared to PF-543”. The inhibition at 10 µM (SK1 [5]; read-out: SK1 inhibitory efficacy) was 39%, the “MS DLM” value [6] was 18.6 and the “MS HLM” value [7] was 18.1. The inhibition at 10 µM (SK2) was 44%, the “levels of PARP, Caspase-3 and cleaved PARP” value (A549 cells [8]) was “levels of PARP and Caspase-3 were decreased and cleavage of PARP was increased” and the colony formation (A549 cells [9]) was “reduce colony formation in a concentration-dependent manner”. The “change in mitochondrial membrane potential (MMP), JC-10” value (A549 cells [10]) was “significantly increased compared to that after treatment with PF-543”, the “MS MLM” value [11] was 24.6 and the “cytotoxic effects compared with FTY720” value (A549 and H1299 cells; 20 and 40 μM, A549 and H1299 cells) was “cytotoxic effects similar to those of FTY720”. For the same molecule, the IC50 (A549 and H1299 cells; Homo sapiens, 24 h, read-out: IC50 (cytotoxic effect)) was 7.07 µM, the “apoptotic effect (annexin-V)” value (A549 cells [12]; 5 μM) was “significant effect” and the “apoptotic effect (annexin-V)” value (A549 cells [12]; 10 μM) was “significantly higher apoptotic effect compared to PF-543”. The “dependence of cytotoxic efficacy on SK1/SK2 (siRNA knockdown)” value (A549 cells [13]) was “more dependent on SK1, although SK2 is also partially involved”, the S1P levels (A549 cells [14]) was “reduced” and the ceramide levels (A549 cells [14]) was “increased”. The sphingosine levels (A549 cells [14]) was “sphingosine expression at a level similar to that of PF-543”.

For Cc1cc(CS(=O)(=O)c2ccccc2)cc(OCc2ccc(CN3CCC[C@@H]3CO)cc2)c1 [PF-543, reference compound], the “MS RLM” value [4] is listed as 7.8, the “MS DLM” value [6] is listed as 7.3 and the “metabolic stability (MS)” value [15] is listed as “poor”. The “MS MLM” value [11] was 9.4.
